Holding throughout (experiment): relative viability (nuclei count vs DMSO), 5 days (fraction); higher = more cells survive
Compound in the assay “Vemurafenib + Alpelisib”: CCCS(=O)(=O)Nc1ccc(F)c(C(=O)c2c[nH]c3ncc(-c4ccc(Cl)cc4)cc23)c1F [Vemurafenib] + Cc1nc(NC(=O)N2CCC[C@H]2C(N)=O)sc1-c1ccnc(C(C)(C)C(F)(F)F)c1 [Alpelisib] (partner 2 µM)
The procedure, abridged:
(§1)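 Relative viability is defined as nuclei in treated wells over nuclei in vehicle wells. Duplicate plates were run and medians reported. Lung cancer cell lines in 1536-well plates were dosed by pin tool one day after seeding, with one drug or with a fixed anchor-drug dose plus five library-drug doses (not always all listed) in √10 steps, and nuclei were counted after 5 days.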

Compound in the assay “Vemurafenib + Phenformin”: CCCS(=O)(=O)Nc1ccc(F)c(C(=O)c2c[nH]c3ncc(-c4ccc(Cl)cc4)cc23)c1F [Vemurafenib] + N=C(N)NC(=N)NCCc1ccccc1 [Phenformin] (partner 250 µM)
The procedure, abridged:
as §1

Compound in the assay “OSI-027 + Palbociclib”: COc1cccc2cc(-c3nc([C@H]4CC[C@H](C(=O)O)CC4)n4ncnc(N)c34)[nH]c12 [OSI-027] + CC(=O)c1c(C)c2cnc(Nc3ccc(N4CCNCC4)cn3)nc2n(C2CCCC2)c1=O [Palbociclib] (partner 0.5 µM)
Summed up:
as §1

Compound in the assay “Alpelisib + Dasatinib”: Cc1nc(NC(=O)N2CCC[C@H]2C(N)=O)sc1-c1ccnc(C(C)(C)C(F)(F)F)c1 [Alpelisib] + Cc1nc(Nc2ncc(C(=O)Nc3c(C)cccc3Cl)s2)cc(N2CCN(CCO)CC2)n1 [Dasatinib] (partner 0.075 µM)
Summed up:
as §1

Take 201T: the relative viability with Vemurafenib + Alpelisib (first compound 0.03162 µM) came out at 0.974; in the assay with Vemurafenib + Alpelisib (first compound 0.1 µM), 0.96; in the assay with Vemurafenib + Alpelisib (first compound 0.3162 µM), 1.05; with Vemurafenib + Alpelisib (first compound 1 µM), 0.981; with Vemurafenib + Phenformin (first compound 0.03162 µM), 0.421; with Vemurafenib + Phenformin (first compound 0.1 µM), 0.491. Moreover, the relative viability with Vemurafenib + Phenformin (first compound 0.3162 µM) is 0.42; in the assay with Vemurafenib + Phenformin (first compound 1 µM) it was 0.456; in the assay with OSI-027 + Palbociclib (first compound 0.01 µM) it was 0.354; with OSI-027 + Palbociclib (first compound 0.03162 µM) it was 0.36; in the assay with OSI-027 + Palbociclib (first compound 0.1 µM) it was 0.342; in the assay with OSI-027 + Palbociclib (first compound 0.3162 µM), 0.368. The relative viability in the assay with OSI-027 + Palbociclib (first compound 1 µM) was found to be 0.38; in the assay with Alpelisib + Dasatinib (first compound 0.04 µM), 0.561; with Alpelisib + Dasatinib (first compound 0.1265 µM), 0.487; with Alpelisib + Dasatinib (first compound 0.4 µM) it was 0.541; with Alpelisib + Dasatinib (first compound 1.265 µM), 0.434; with Alpelisib + Dasatinib (first compound 4 µM), 0.359.
Turning to A549, the relative viability was 0.568 with Vemurafenib + Alpelisib (first compound 0.03162 µM); 0.713 with Vemurafenib + Alpelisib (first compound 0.1 µM); 0.772 with Vemurafenib + Alpelisib (first compound 0.3162 µM); 0.867 in the assay with Vemurafenib + Alpelisib (first compound 1 µM); 0.163 with Vemurafenib + Phenformin (first compound 0.03162 µM); 0.154 with Vemurafenib + Phenformin (first compound 0.1 µM). For the same cell line, the relative viability with Vemurafenib + Phenformin (first compound 1 µM) was 0.146.
Consider A-427, for which the relative viability in the assay with Vemurafenib + Alpelisib (first compound 0.03162 µM) came to 1.02; with Vemurafenib + Alpelisib (first compound 0.1 µM), 1.09; with Vemurafenib + Alpelisib (first compound 0.3162 µM) it was 1.11; with Vemurafenib + Alpelisib (first compound 1 µM), 1.14; with Vemurafenib + Phenformin (first compound 0.03162 µM) it was 0.317; with Vemurafenib + Phenformin (first compound 0.1 µM) it was 0.313. Moreover, the relative viability worked out at 0.267 in the assay with Vemurafenib + Phenformin (first compound 0.3162 µM); 0.365 with Vemurafenib + Phenformin (first compound 1 µM); 0.538 with OSI-027 + Palbociclib (first compound 0.01 µM); 0.516 with OSI-027 + Palbociclib (first compound 0.03162 µM); 0.453 with OSI-027 + Palbociclib (first compound 0.1 µM); 0.414 with OSI-027 + Palbociclib (first compound 0.3162 µM). The relative viability with OSI-027 + Palbociclib (first compound 1 µM) was 0.386; with Alpelisib + Dasatinib (first compound 0.04 µM), 0.618; with Alpelisib + Dasatinib (first compound 0.1265 µM), 0.579; in the assay with Alpelisib + Dasatinib (first compound 0.4 µM), 0.704; with Alpelisib + Dasatinib (first compound 1.265 µM), 0.559; with Alpelisib + Dasatinib (first compound 4 µM), 0.638.
With ABC-1, the relative viability with Vemurafenib + Alpelisib (first compound 0.03162 µM) was determined as 0.916; with Vemurafenib + Alpelisib (first compound 0.1 µM), 0.878; in the assay with Vemurafenib + Alpelisib (first compound 0.3162 µM), 1.25; with Vemurafenib + Alpelisib (first compound 1 µM), 1.14; with Vemurafenib + Phenformin (first compound 0.03162 µM) it was 0.241; with Vemurafenib + Phenformin (first compound 0.1 µM), 0.297. For the same cell line, the relative viability in the assay with Vemurafenib + Phenformin (first compound 0.3162 µM) was 0.276; in the assay with Vemurafenib + Phenformin (first compound 1 µM), 0.246; with OSI-027 + Palbociclib (first compound 0.01 µM), 0.828; in the assay with OSI-027 + Palbociclib (first compound 0.03162 µM) it was 0.531; with OSI-027 + Palbociclib (first compound 0.1 µM) it was 0.476; with OSI-027 + Palbociclib (first compound 0.3162 µM) it was 0.444. The relative viability is 0.553 with OSI-027 + Palbociclib (first compound 1 µM); 0.637 with Alpelisib + Dasatinib (first compound 0.04 µM); 0.495 in the assay with Alpelisib + Dasatinib (first compound 0.1265 µM); 0.823 with Alpelisib + Dasatinib (first compound 0.4 µM); 0.484 in the assay with Alpelisib + Dasatinib (first compound 1.265 µM); 0.386 with Alpelisib + Dasatinib (first compound 4 µM).
Regarding BEN, the relative viability turned out to be 0.966 with Vemurafenib + Alpelisib (first compound 0.03162 µM); 0.98 with Vemurafenib + Alpelisib (first compound 0.1 µM); 0.793 with Vemurafenib + Alpelisib (first compound 0.3162 µM); 0.784 with Vemurafenib + Alpelisib (first compound 1 µM); 0.255 with Vemurafenib + Phenformin (first compound 0.03162 µM); 0.299 with Vemurafenib + Phenformin (first compound 0.1 µM). For the same cell line, the relative viability in the assay with Vemurafenib + Phenformin (first compound 1 µM) worked out at 0.249; with OSI-027 + Palbociclib (first compound 0.01 µM) it was 0.487; with OSI-027 + Palbociclib (first compound 0.03162 µM) it was 0.47; with OSI-027 + Palbociclib (first compound 0.1 µM), 0.425; with OSI-027 + Palbociclib (first compound 0.3162 µM), 0.471; with OSI-027 + Palbociclib (first compound 1 µM), 0.472. Moreover, the relative viability with Alpelisib + Dasatinib (first compound 0.04 µM) turned out to be 0.318; with Alpelisib + Dasatinib (first compound 0.1265 µM), 0.23; in the assay with Alpelisib + Dasatinib (first compound 0.4 µM), 0.38; in the assay with Alpelisib + Dasatinib (first compound 1.265 µM), 0.333; with Alpelisib + Dasatinib (first compound 4 µM), 0.29.
In the case of CAL-12T, the relative viability with Vemurafenib + Alpelisib (first compound 0.03162 µM) turned out to be 1.07; in the assay with Vemurafenib + Alpelisib (first compound 0.1 µM), 1.21; with Vemurafenib + Alpelisib (first compound 0.3162 µM) it was 1.4; with Vemurafenib + Alpelisib (first compound 1 µM), 1.33; in the assay with Vemurafenib + Phenformin (first compound 0.03162 µM) it was 0.538; with Vemurafenib + Phenformin (first compound 0.1 µM), 0.453. Also, the relative viability with Vemurafenib + Phenformin (first compound 0.3162 µM) was determined as 0.602; in the assay with Vemurafenib + Phenformin (first compound 1 µM) it was 0.552; with OSI-027 + Palbociclib (first compound 0.01 µM) it was 0.427; in the assay with OSI-027 + Palbociclib (first compound 0.03162 µM), 0.432; in the assay with OSI-027 + Palbociclib (first compound 0.1 µM), 0.28; in the assay with OSI-027 + Palbociclib (first compound 0.3162 µM), 0.313. For the same cell line, the relative viability was 0.22 with OSI-027 + Palbociclib (first compound 1 µM); 0.34 with Alpelisib + Dasatinib (first compound 0.04 µM); 0.275 in the assay with Alpelisib + Dasatinib (first compound 0.1265 µM); 0.483 with Alpelisib + Dasatinib (first compound 0.4 µM); 0.27 with Alpelisib + Dasatinib (first compound 1.265 µM); 0.232 in the assay with Alpelisib + Dasatinib (first compound 4 µM).
COR-L23: the relative viability turned out to be 0.706 with Vemurafenib + Alpelisib (first compound 0.03162 µM); 0.693 in the assay with Vemurafenib + Alpelisib (first compound 0.1 µM); 0.687 with Vemurafenib + Alpelisib (first compound 0.3162 µM); 0.78 with Vemurafenib + Alpelisib (first compound 1 µM); 0.38 in the assay with Vemurafenib + Phenformin (first compound 0.03162 µM); 0.464 with Vemurafenib + Phenformin (first compound 0.1 µM). In addition, the relative viability was 0.334 in the assay with Vemurafenib + Phenformin (first compound 0.3162 µM); 0.435 with Vemurafenib + Phenformin (first compound 1 µM); 0.304 in the assay with OSI-027 + Palbociclib (first compound 0.01 µM); 0.3 with OSI-027 + Palbociclib (first compound 0.03162 µM); 0.295 in the assay with OSI-027 + Palbociclib (first compound 0.1 µM); 0.255 in the assay with OSI-027 + Palbociclib (first compound 0.3162 µM). Further, the relative viability with OSI-027 + Palbociclib (first compound 1 µM) came to 0.171; with Alpelisib + Dasatinib (first compound 0.04 µM) it was 0.436; in the assay with Alpelisib + Dasatinib (first compound 0.1265 µM), 0.392; with Alpelisib + Dasatinib (first compound 0.4 µM), 0.535; with Alpelisib + Dasatinib (first compound 1.265 µM) it was 0.278; with Alpelisib + Dasatinib (first compound 4 µM), 0.292.
Take COR-L 105: the relative viability came out at 0.936 with Vemurafenib + Alpelisib (first compound 0.03162 µM); 1.11 in the assay with Vemurafenib + Alpelisib (first compound 0.3162 µM); 0.839 in the assay with Vemurafenib + Alpelisib (first compound 1 µM); 0.399 with Vemurafenib + Phenformin (first compound 0.03162 µM); 0.5 in the assay with Vemurafenib + Phenformin (first compound 1 µM); 0.393 in the assay with OSI-027 + Palbociclib (first compound 0.01 µM). Besides, the relative viability with OSI-027 + Palbociclib (first compound 0.03162 µM) stood at 0.406; in the assay with OSI-027 + Palbociclib (first compound 0.1 µM), 0.369; in the assay with OSI-027 + Palbociclib (first compound 0.3162 µM), 0.389; in the assay with OSI-027 + Palbociclib (first compound 1 µM) it was 0.423; in the assay with Alpelisib + Dasatinib (first compound 0.04 µM), 0.301; in the assay with Alpelisib + Dasatinib (first compound 0.1265 µM), 0.444. Moreover, the relative viability with Alpelisib + Dasatinib (first compound 0.4 µM) was 0.346; with Alpelisib + Dasatinib (first compound 1.265 µM) it was 0.273; with Alpelisib + Dasatinib (first compound 4 µM), 0.26.
Regarding Calu-6, the relative viability with Vemurafenib + Alpelisib (first compound 0.03162 µM) amounted to 0.975; with Vemurafenib + Alpelisib (first compound 0.1 µM) it was 0.891; in the assay with Vemurafenib + Alpelisib (first compound 0.3162 µM) it was 0.817; with Vemurafenib + Alpelisib (first compound 1 µM), 0.904.
ChaGo-K-1: the relative viability with Vemurafenib + Phenformin (first compound 0.03162 µM) was found to be 0.472; with Vemurafenib + Phenformin (first compound 0.1 µM) it was 0.545; with Vemurafenib + Phenformin (first compound 0.3162 µM), 0.352; in the assay with Vemurafenib + Phenformin (first compound 1 µM), 0.481; in the assay with OSI-027 + Palbociclib (first compound 0.01 µM), 0.946; in the assay with OSI-027 + Palbociclib (first compound 0.03162 µM), 0.942. The relative viability with OSI-027 + Palbociclib (first compound 0.1 µM) is 0.904; in the assay with OSI-027 + Palbociclib (first compound 0.3162 µM), 0.87; with OSI-027 + Palbociclib (first compound 1 µM) it was 0.774; with Alpelisib + Dasatinib (first compound 0.04 µM), 0.546; with Alpelisib + Dasatinib (first compound 0.1265 µM), 0.592; in the assay with Alpelisib + Dasatinib (first compound 0.4 µM), 0.547. Further, the relative viability with Alpelisib + Dasatinib (first compound 1.265 µM) is 0.487; with Alpelisib + Dasatinib (first compound 4 µM) it was 0.452.

For the origin of these results see the supplement of paper PMC10307832.
